Values of other authors, collected in patent US20060034895A1, “Supplement food for low blood glucose recovery” (priority 2003, published 2006).

solubility in alcohol (alcohol): cannot melt into an alcohol easily
solubility in ether (ether): insoluble to ether
solubility in water (water): easy to melt into water
SMILES: O=C[C@H](O)[C@@H](O)[C@H](O)[C@H](O)CO [D-glucose]
